Experimental findings from ChEMBL document CHEMBL1158262, “Novel beta-methoxyacrylates of the 9-methoxystrobilurin and oudesmansin classes produced by the basidiomycete Favolaschia pustulosa” (J Nat Prod, 1996) are described below.

Converted amounts (≈) assume the structure as drawn. The source made the active and inactive calls. No cut-off for these calls is given here.

For experiment [1], the system named is Candida albicans. The experiment in a line: Antifungal activity against Candida albicans after 18 hrs by serial dilution method. It counts as functional.
The subject of experiment [2] is JIYOYE. The experiment in a line: Cytotoxicity against human Jijoye cells after 2 days by XTT assay. The class given is functional, cell-based.
Experiment [3] concerns JIYOYE. As to the kind of experiment: Cytotoxicity against human Jijoye cells after 5 days by XTT assay. It counts as functional, cell-based. The settings on record: 120 h.
Experiment [4] has as its system Bacillus subtilis. As to the kind of experiment: Antibacterial activity against Bacillus subtilis after 18 hrs by serial dilution method. It counts as functional.

Regarding `C=CC(C)(C)OC(C)(C)C1COc2ccc(/C=C/C(OC)=C(C)\C(=C/OC)C(=O)OC)cc2O1` (stereo not given), the MIC stood at 6 µM (≈ 2.84 µg/mL) in experiment [1] and 0.9 µM (≈ 0.425 µg/mL) in experiment [4]. For the same compound, in experiment [2], the result was inactive. This compound yielded an IC50 in experiment [3] of 1.8 nM. For the same compound, the CC50 in experiment [3] (read-out: LC50 (the source's name)) turned out to be 1.8 nM.
